The values below come from patent US7638535B2, “4-(aminomethyl)-piperidine benzamides as 5HT4-antagonists” (Janssen Pharmaceutica N.V., priority 2003, dated 2009).

Each structure is given as a SMILES string.

The assay addresses T1, h5-HT4b (Homo sapiens, UniProt Q13639).
T1 construct: expressed in transfected cells; host or cells: HEK 293 (clone 9), membrane preparation
Briefly: 5HT4 antagonism: [3H]GR113808 binding to membranes of h5-HT4b-HEK 293 clone 9 cells. Conditions: displacement of [3H]GR113808 0.1 nM, h5-HT4b-HEK 293 membranes, 30 min at 25° C.; read-out: pIC50 (5HT4 antagonistic data) (converted). The method in brief:
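Membranes from h5-HT4b-HEK 293 clone 9 cells were incubated with [3H]GR113808 (0.1 nM as added) in 50 mM HEPES-NaOH pH 7.4 for 30 min at 25 °C. Non-specific binding was defined with a 5-HT4 agonist. Bound radioligand was separated by filtration over PEI-soaked GF/B filters.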
For orientation: Displacement assays read how much labelled ligand stays bound in the presence of the test substance.

T1 sequence (Q13639 whole entry): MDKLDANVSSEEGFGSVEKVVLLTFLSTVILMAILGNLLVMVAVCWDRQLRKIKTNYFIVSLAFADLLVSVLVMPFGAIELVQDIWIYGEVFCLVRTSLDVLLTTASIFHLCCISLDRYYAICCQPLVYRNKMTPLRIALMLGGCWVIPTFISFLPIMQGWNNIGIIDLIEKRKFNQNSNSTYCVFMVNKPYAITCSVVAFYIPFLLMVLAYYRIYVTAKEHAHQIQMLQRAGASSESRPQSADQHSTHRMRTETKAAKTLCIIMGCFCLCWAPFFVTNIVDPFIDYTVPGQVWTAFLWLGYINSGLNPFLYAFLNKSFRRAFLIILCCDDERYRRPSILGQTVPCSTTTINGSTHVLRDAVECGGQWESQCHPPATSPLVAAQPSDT

Turning to `N#CCc1cc2c(c(C(=O)NC[C@@H]3CCN(CC4CCCO4)C[C@H]3O)c1)OCCCO2` (stereo partly drawn) [compound 127], the IC50 was 17 nM.

In the case of `COc1cc2c(c(C(=O)NC[C@@H]3CCN(CCCC#N)C[C@H]3O)c1)OCCCO2` [compound 128], the IC50 is 16.6 nM.

In the case of `CNc1cc(C(=O)NC[C@@H]2CCN(CC3CCCO3)C[C@H]2O)c2c(c1Cl)OCCO2` (stereo partly drawn) [compound 129], the IC50 was 16.2 nM.

As to `CNc1cc(C(=O)NC[C@@H]2CCN(CCCC#N)C[C@H]2O)c2c(c1Cl)OCCO2` [compound 130], the IC50 is 55 nM.

In the case of `CCCNc1cc2c(c(C(=O)NC[C@@H]3CCN(CCCC#N)C[C@H]3O)c1)OCCCO2` [compound 131], the IC50 is 135 nM.

`CS(=O)(=O)NCCN1CC[C@@H](CNC(=O)c2cc(N)cc3c2OCCO3)[C@H](O)C1` [compound 132]: the IC50 was 91.2 nM.

As for `Nc1cc(C(=O)NC[C@@H]2CCNC[C@H]2O)c2c(c1Br)OCCO2` [compound 133], the IC50 was 537 nM.

`CCCCN1CC[C@@H](CNC(=O)c2cc(NCCC)cc3c2OCCCO3)[C@H](O)C1` [compound 134]: the IC50 is 95.5 nM.

As for `CCCNc1cc2c(c(C(=O)NC[C@@H]3CCN(CCC4OCCO4)C[C@H]3O)c1)OCCCO2` [compound 135], the IC50 is 93.3 nM.

Regarding `CNc1cc2c(c(C(=O)NC[C@@H]3CCN(CCCCO)C[C@H]3O)c1)OCCCO2` [compound 136], the IC50 was 81.3 nM.

`Nc1cc(C(=O)NC[C@@H]2CCN(CC3CCCO3)C[C@H]2O)c2c(c1Br)OCCO2` (stereo partly drawn) [compound 137]: the IC50 is 27.5 nM.

`N#CCCCCN1CC[C@@H](CNC(=O)c2cc(N)c(Br)c3c2OCCO3)[C@H](O)C1` [compound 138]: the IC50 is 81.3 nM.

As to `COCCCCN1CC[C@@H](CNC(=O)c2cc(N)c(Br)c3c2OCCO3)[C@H](O)C1` [compound 139], the IC50 is 39.8 nM.

Regarding `Nc1cc(C(=O)NC[C@@H]2CCN(CCCO)C[C@H]2O)c2c(c1Br)OCCO2` [compound 140], the IC50 is 93.3 nM.

As for `Nc1cc(C(=O)NC[C@@H]2CCN(CCC3OCCO3)C[C@H]2O)c2c(c1Br)OCCO2` [compound 141], the IC50 is 43.7 nM.

As to `Nc1cc(C(=O)NC[C@@H]2CCNC[C@H]2O)c2c(c1Br)OCCCO2` [compound 142], the IC50 was 1150 nM.

For the molecule `CCCCNc1cc2c(c(C(=O)NC[C@@H]3CCN(CCCC)C[C@H]3O)c1)OCCCO2` [compound 143], the IC50 was 61.7 nM.

Consider `CCCCNc1cc2c(c(C(=O)NC[C@@H]3CCN(CCC4OCCO4)C[C@H]3O)c1)OCCCO2` [compound 144], for which the IC50 is 112 nM.

As for `N#CCCCN1CC[C@@H](CNC(=O)c2cc(N)c(Br)c3c2OCCCO3)[C@H](O)C1` [compound 145], the IC50 was 63.1 nM.

For `Nc1cc(C(=O)NC[C@@H]2CCN(CCC3OCCO3)C[C@H]2O)c2c(c1Br)OCCCO2` [compound 146], the IC50 is 34.7 nM.

As for `Nc1cc(C(=O)NC[C@@H]2CCN(CCCO)C[C@H]2O)c2c(c1Br)OCCCO2` [compound 147], the IC50 was 43.7 nM.

Take `CCCNc1cc2c(c(C(=O)NC[C@@H]3CCN(CCCOC)C[C@H]3O)c1)OCCCO2` [compound 148]: the IC50 is 100 nM.

In the case of `CCCNc1cc2c(c(C(=O)NC[C@@H]3CCNC[C@H]3O)c1)OCCCO2` [compound 149], the IC50 is 3550 nM.

For the molecule `CCCCNc1cc2c(c(C(=O)NC[C@@H]3CCN(CCCC#N)C[C@H]3O)c1)OCCCO2` [compound 150], the IC50 was 120 nM.

Take `CCCNc1cc2c(c(C(=O)NC[C@@H]3CCN(CCCO)C[C@H]3O)c1)OCCCO2` [compound 151]: the IC50 was 89.1 nM.

Consider `Nc1cc(C(=O)NC[C@@H]2CCN(CC3CCCO3)C[C@H]2O)c2c(c1Br)OCCCO2` (stereo partly drawn) [compound 152], for which the IC50 was 24 nM.

Regarding `CCCCN1CC[C@@H](CNC(=O)c2cc(N)c(Br)c3c2OCCO3)[C@H](O)C1` [compound 153], the IC50 is 13.8 nM.

As for `CCCCNc1cc2c(c(C(=O)NC[C@@H]3CCNC[C@H]3O)c1)OCCCO2` [compound 154], the IC50 is 3160 nM.

As for `COCCCN1CC[C@@H](CNC(=O)c2cc(N)c(Br)c3c2OCCCO3)[C@H](O)C1` [compound 155], the IC50 is 55 nM.

For `CCCCNc1cc2c(c(C(=O)NC[C@@H]3CCN(CCCO)C[C@H]3O)c1)OCCCO2` [compound 156], the IC50 is 46.8 nM.

As for `CCCCNc1cc2c(c(C(=O)NC[C@@H]3CCN(CCCOC)C[C@H]3O)c1)OCCCO2` [compound 157], the IC50 is 81.3 nM.

For `N#CCCCN1CC[C@@H](CNC(=O)c2cc(C#N)cc3c2OCCCO3)[C@H](O)C1` [compound 160], the IC50 was 20 nM.

Turning to `CCCCN1CC[C@@H](CNC(=O)c2cc(NCC)cc3c2OCCCO3)[C@H](O)C1` [compound 161], the IC50 was 85.1 nM.

As to `CCCCN1CC[C@@H](CNC(=O)c2cc(C)cc3c2OCCCO3)[C@H](O)C1` [compound 164], the IC50 was 1 nM.

`Cc1cc2c(c(C(=O)NC[C@@H]3CCN(CCCC#N)C[C@H]3O)c1)OCCCO2` [compound 166]: the IC50 was 4.27 nM.

As to `CC(C)Nc1cc2c(c(C(=O)NC[C@@H]3CCNC[C@H]3O)c1)OCCCO2` [compound 167], the IC50 was 2400 nM.

As to `CC(C)Nc1cc2c(c(C(=O)NC[C@@H]3CCN(CCC4OCCO4)C[C@H]3O)c1)OCCCO2` [compound 169], the IC50 was 32.4 nM.

Turning to `N#Cc1cc2c(c(C(=O)NC[C@@H]3CCN(CCC4OCCO4)C[C@H]3O)c1)OCCCO2` [compound 170], the IC50 is 16.2 nM.

Regarding `CNCCCCN1CC[C@@H](CNC(=O)c2cc(C#N)cc3c2OCCCO3)[C@H](O)C1` [compound 171], the IC50 was 1.62 nM.

Regarding `CC(C)Nc1cc2c(c(C(=O)NC[C@@H]3CCN(CCCC#N)C[C@H]3O)c1)OCCCO2` [compound 172], the IC50 is 107 nM.

`CNCCCCN1CC[C@@H](CNC(=O)c2cc(C)cc3c2OCCCO3)[C@H](O)C1` [compound 173]: the IC50 is 3.02 nM.

Take `CCCCN1CC[C@@H](CNC(=O)c2cc(NC(C)C)cc3c2OCCCO3)[C@H](O)C1` [compound 174]: the IC50 was 117 nM.

For the molecule `N#Cc1cc2c(c(C(=O)NC[C@@H]3CCNC[C@H]3O)c1)OCCCO2` [compound 175], the IC50 is 123 nM.

With `CCNc1cc2c(c(C(=O)NC[C@@H]3CCN(CCC4OCCO4)C[C@H]3O)c1)OCCCO2` [compound 176], the IC50 was 16.2 nM.

Take `CCNc1cc2c(c(C(=O)NC[C@@H]3CCNC[C@H]3O)c1)OCCCO2` [compound 178]: the IC50 was 1410 nM.

Take `COCCCN1CC[C@@H](CNC(=O)c2cc(NC(C)C)cc3c2OCCCO3)[C@H](O)C1` [compound 179]: the IC50 is 63.1 nM.

For the molecule `CC(C)Nc1cc2c(c(C(=O)NC[C@@H]3CCN(CCCO)C[C@H]3O)c1)OCCCO2` [compound 180], the IC50 was 43.7 nM.

For `CCCCN1CC[C@@H](CNC(=O)c2cc(N)c(Br)c3c2OCCCO3)[C@H](O)C1` [compound 181], the IC50 was 8.51 nM.

With `CCNc1cc2c(c(C(=O)NC[C@@H]3CCN(CCCC#N)C[C@H]3O)c1)OCCCO2` [compound 182], the IC50 is 100 nM.

Turning to `Nc1cc(C(=O)NC[C@@H]2CCNC[C@H]2O)c2c(c1Cl)OCCCO2` [compound 188], the IC50 was 832 nM.

For the molecule `Cc1cc2c(c(C(=O)NC[C@@H]3CCN(CCCNS(C)(=O)=O)C[C@H]3O)c1)OCCCO2` [compound 189], the IC50 was 1.86 nM.

Regarding `COCc1cc2c(c(C(=O)NC[C@@H]3CCNC[C@H]3O)c1)OCCCO2` [compound 190], the IC50 is 269 nM.

In the case of `Cc1cc2c(c(C(=O)NC[C@@H]3CCN(CCCC(=O)O)C[C@H]3O)c1)OCCCO2` [compound 192], the IC50 is 30.9 nM.

With `Cc1cc2c(c(C(=O)NC[C@@H]3CCN(CCCCOc4ccc(S(N)(=O)=O)cc4)C[C@H]3O)c1)OCCCO2` [compound 194], the IC50 is 0.589 nM.

Consider `CCCCN1CC[C@@H](CNC(=O)c2cc(OC)cc3c2OCCCO3)[C@H](O)C1` [compound 195], for which the IC50 is 3.63 nM.

As for `Cc1cc2c(c(C(=O)NC[C@@H]3CCN(CCCOc4ccc(S(N)(=O)=O)cc4)C[C@H]3O)c1)OCCCO2` [compound 196], the IC50 is 0.427 nM.

Take `Cc1cc2c(c(C(=O)NC[C@@H]3CCN(CCOc4ccc(S(N)(=O)=O)cc4)C[C@H]3O)c1)OCCCO2` [compound 198]: the IC50 is 1.2 nM.

For `CNCCCCN1CC[C@@H](CNC(=O)c2cc(OC)cc3c2OCCCO3)[C@H](O)C1` [compound 199], the IC50 is 12.3 nM.

With `Cc1cc2c(c(C(=O)NC[C@@H]3CCN(CCC#N)C[C@H]3O)c1)OCCCO2` [compound 201], the IC50 was 14.5 nM.

In the case of `CO[C@@H]1CNCC[C@H]1CNC(=O)c1cc(C#N)cc2c1OCCCO2` [compound 203], the IC50 was 1350 nM.

With `CO[C@@H]1CNCC[C@H]1CNC(=O)c1cc(C)cc2c1OCCCO2` [compound 204], the IC50 is 83.2 nM.

On to `Cc1cc2c(c(C(=O)NC[C@@H]3CCN(CCCS(C)(=O)=O)C[C@H]3O)c1)OCCCO2` [compound 205], for which the IC50 was 2.75 nM.

`COCCCN1CC[C@@H](CNC(=O)c2cc(C)cc3c2OCCCO3)[C@H](OC)C1` [compound 206]: the IC50 was 3.16 nM.

With `CO[C@@H]1CN(CCCO)CC[C@H]1CNC(=O)c1cc(C#N)cc2c1OCCCO2` [compound 207], the IC50 was 37.2 nM.

In the case of `CO[C@@H]1CN(CCCC#N)CC[C@H]1CNC(=O)c1cc(C#N)cc2c1OCCCO2` [compound 208], the IC50 was 5.62 nM.

On to `CCCCN1CC[C@@H](CNC(=O)c2cc(C#N)cc3c2OCCCO3)[C@H](OC)C1` [compound 209], for which the IC50 was 17.8 nM.

Regarding `CO[C@@H]1CN(CCCO)CC[C@H]1CNC(=O)c1cc(C)cc2c1OCCCO2` [compound 210], the IC50 is 5.25 nM.

Turning to `Cc1cc2c(c(C(=O)NC[C@@H]3CCN(CCCOC(C)C)C[C@H]3O)c1)OCCCO2` [compound 212], the IC50 is 0.813 nM.

With `Cc1cc2c(c(C(=O)NC[C@@H]3CCN(CCCCCC(N)=O)C[C@H]3O)c1)OCCCO2` [compound 213], the IC50 is 2.63 nM.
